Measured values from ChEMBL document CHEMBL1201862, “PubChem BioAssay data set” (2004).
Activity calls are given as the source filed them.

Tests used:
[1] = biological target: Tyrosyl-DNA phosphodiesterase 2 (Homo sapiens, UniProt O95551); test: human TDP2 enzyme inhibitors, dose response, biochemical, epi absorbance, IC50 (AID 743297)
[2] = biological target: T1, Heat shock factor protein 1 (Mus musculus, UniProt P38532); test: HSF1 potentiators in luciferase reporter cells, confirmation, cell-based, NIH3T3, luminescence, dose retest (AID 435004); assay type: functional;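 also: stress induced by proteasome inhibitor MG132 added 30 min after compound; luciferase reporter driven by HSF1 response element in NIH3T3 cells; actives raise luminescence as potentiators of the MG132 stress response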
T1 sequence (P38532 whole entry): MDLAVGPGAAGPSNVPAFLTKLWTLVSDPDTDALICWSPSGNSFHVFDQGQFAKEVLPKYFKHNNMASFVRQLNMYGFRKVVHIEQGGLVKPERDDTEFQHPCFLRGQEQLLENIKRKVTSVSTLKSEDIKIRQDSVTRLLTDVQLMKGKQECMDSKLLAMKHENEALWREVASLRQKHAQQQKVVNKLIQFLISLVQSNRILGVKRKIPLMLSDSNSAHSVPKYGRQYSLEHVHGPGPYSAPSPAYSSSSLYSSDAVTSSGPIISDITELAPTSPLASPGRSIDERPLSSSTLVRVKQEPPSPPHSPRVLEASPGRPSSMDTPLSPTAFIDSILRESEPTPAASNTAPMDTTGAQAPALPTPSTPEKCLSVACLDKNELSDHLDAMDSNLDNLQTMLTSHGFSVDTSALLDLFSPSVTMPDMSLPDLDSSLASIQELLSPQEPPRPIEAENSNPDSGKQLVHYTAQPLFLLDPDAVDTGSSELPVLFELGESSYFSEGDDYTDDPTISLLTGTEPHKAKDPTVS

[3] = inhibitors of intracellular T. cruzi replication, confirmation, NIH3T3 host cells, beta-gal luminescence (AID 2044); assay type: functional, cell-based;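 also: intracellular parasites grown in NIH/3T3 mouse fibroblasts as host cells; luminescent beta-galactosidase reporter signal from transgenic T. cruzi replicating inside host cells; inhibitors lower the luminescence signal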
[4] = biological target: T2, Bifunctional protein GlmU (Mycobacterium tuberculosis, UniProt P9WMN3); test: Inhibitors of Mycobacterial Glucosamine-1-phosphate acetyl transferase (GlmU). Secondary screen.; set-up: species or system Mycobacterium tuberculosis H37Rv
T2 sequence (P9WMN3 whole entry): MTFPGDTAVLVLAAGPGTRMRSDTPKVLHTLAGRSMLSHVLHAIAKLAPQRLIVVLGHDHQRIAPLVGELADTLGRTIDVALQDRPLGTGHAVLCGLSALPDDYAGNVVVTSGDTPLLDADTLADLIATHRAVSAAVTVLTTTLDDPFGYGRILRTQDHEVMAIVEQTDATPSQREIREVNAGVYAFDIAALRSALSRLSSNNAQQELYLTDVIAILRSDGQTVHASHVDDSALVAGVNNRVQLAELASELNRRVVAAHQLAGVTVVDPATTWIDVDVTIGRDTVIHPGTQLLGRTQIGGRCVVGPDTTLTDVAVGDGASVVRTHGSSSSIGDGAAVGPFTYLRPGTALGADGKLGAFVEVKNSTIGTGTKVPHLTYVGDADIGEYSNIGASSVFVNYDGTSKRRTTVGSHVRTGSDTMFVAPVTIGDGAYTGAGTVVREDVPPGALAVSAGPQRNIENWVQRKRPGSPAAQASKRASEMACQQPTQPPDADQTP

[5] = biological target: Small ubiquitin-related modifier 2 (Homo sapiens, UniProt P61956); test: SUMO2–SIM peptide binding inhibitors, dose response, selectivity assay for SUMO1 interaction inhibitor project, biochemical, fluorescence polarization, uHTS hits (AID 624385); assay type: functional; conditions: read-out: IC50_Mean
Sequence of Small ubiquitin-related modifier 2 (P61956 whole entry): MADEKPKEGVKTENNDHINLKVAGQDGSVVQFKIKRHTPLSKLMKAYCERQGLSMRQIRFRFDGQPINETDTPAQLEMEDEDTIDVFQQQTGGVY

Large T antigen = Large T antigen (Simian virus 40, UniProt P03070); assay type: functional, Betapolyomavirus macacae;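 also: Confirmatory-stage PubChem screen for compounds that inhibit SV40 T antigen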
Sequence of Large T antigen (P03070 whole entry): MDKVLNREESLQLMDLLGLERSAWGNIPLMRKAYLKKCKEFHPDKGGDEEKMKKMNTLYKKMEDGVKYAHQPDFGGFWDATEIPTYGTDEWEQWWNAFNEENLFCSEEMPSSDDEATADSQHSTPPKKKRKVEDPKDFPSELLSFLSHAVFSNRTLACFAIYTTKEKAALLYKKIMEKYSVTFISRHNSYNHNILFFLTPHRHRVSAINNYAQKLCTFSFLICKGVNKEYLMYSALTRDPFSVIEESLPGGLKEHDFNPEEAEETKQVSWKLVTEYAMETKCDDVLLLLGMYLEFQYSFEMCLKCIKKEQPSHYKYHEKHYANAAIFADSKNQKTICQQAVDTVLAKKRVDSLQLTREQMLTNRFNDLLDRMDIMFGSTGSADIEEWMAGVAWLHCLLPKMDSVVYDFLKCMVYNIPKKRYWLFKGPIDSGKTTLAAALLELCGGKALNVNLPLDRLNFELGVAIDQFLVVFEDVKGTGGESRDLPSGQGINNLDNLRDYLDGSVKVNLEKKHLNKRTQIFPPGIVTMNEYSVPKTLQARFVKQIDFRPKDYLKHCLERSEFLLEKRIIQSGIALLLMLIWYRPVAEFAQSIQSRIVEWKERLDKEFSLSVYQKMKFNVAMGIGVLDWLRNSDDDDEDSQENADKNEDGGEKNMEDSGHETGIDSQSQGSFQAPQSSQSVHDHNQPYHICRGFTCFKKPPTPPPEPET

Streptokinase A = biological target: T3, Streptokinase A (Streptococcus pyogenes serotype M1, UniProt P10520); test: S. pyogenes streptokinase expression inhibitors, potency, dose response, plasminogen activation absorbance, OD405 (AID 1914); assay type: functional, Streptococcus pyogenes M1 GAS;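 also: secreted streptokinase activity via plasminogen activation per viability signal from cell pellet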
T3 sequence (P10520 whole entry): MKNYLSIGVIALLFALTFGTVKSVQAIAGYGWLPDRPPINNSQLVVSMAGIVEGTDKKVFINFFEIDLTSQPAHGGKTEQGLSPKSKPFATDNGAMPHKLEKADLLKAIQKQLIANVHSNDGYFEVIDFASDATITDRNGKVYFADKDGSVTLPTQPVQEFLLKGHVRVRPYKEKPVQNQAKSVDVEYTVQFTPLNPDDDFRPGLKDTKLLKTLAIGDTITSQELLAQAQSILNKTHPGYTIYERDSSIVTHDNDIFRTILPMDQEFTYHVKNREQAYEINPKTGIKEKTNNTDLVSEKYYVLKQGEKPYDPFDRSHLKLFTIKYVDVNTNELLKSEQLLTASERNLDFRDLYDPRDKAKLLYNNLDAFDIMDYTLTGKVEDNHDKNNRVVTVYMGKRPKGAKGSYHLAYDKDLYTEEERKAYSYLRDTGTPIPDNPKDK

SUMO-activating enzyme = SUMO-activating enzyme (Homo sapiens, UniProt Q9UBT2); test: SUMOylation inhibitor hit validation, confirmation, SUMOylation inhibitor project, biochemical, AlphaScreen (AID 2018); assay type: functional
Sequence of SUMO-activating enzyme (Q9UBE0 whole entry): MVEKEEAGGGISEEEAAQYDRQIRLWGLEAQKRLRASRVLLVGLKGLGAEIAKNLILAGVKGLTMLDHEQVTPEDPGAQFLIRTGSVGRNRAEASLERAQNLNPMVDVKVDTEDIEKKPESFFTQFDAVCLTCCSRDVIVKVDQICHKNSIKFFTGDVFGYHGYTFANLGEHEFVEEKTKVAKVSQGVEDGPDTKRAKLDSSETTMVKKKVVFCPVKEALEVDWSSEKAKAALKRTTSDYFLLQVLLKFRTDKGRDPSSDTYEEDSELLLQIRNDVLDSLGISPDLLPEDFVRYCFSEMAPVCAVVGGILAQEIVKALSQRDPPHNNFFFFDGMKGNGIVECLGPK
Sequence of SUMO-activating enzyme (Q9UBT2 whole entry): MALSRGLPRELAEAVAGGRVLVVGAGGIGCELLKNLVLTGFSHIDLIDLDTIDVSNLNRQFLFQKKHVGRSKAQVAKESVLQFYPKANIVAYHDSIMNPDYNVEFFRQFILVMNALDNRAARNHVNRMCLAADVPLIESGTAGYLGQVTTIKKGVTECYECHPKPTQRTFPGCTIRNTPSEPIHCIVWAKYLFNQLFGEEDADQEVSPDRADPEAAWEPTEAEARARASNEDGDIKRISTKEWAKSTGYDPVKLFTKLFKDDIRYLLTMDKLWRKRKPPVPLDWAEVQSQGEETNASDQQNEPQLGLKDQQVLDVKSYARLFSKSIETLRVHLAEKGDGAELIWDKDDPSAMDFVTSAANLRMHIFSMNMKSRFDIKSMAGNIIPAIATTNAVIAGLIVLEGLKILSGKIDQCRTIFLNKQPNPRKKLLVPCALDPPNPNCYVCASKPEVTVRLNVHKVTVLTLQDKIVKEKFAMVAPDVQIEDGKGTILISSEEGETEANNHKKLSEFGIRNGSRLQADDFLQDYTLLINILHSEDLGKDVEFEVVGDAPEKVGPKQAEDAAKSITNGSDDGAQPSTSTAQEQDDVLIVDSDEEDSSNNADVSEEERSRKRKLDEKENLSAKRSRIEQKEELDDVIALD

Sequence of Tyrosyl-DNA phosphodiesterase 2 (O95551 whole entry): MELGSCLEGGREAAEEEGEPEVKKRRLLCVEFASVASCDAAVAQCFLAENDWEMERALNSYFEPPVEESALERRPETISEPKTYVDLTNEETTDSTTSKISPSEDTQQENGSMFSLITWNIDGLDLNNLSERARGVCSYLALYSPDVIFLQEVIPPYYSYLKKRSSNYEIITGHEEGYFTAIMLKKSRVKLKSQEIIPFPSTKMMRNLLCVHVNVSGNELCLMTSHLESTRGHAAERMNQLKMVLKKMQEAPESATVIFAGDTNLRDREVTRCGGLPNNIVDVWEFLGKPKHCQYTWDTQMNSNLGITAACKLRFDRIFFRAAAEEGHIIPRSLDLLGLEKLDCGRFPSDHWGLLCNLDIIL

COc1cc(C(=O)c2nccc3cc(OC)c(OC)cc23)c([N+](=O)[O-])cc1OC
IC50 [1]: > 128 µM (inactive)

c1ccc2c(Nc3nnc(-c4ccncc4)s3)cccc2c1
EC50 [2]: 42.1 µM (active)
EC50 [3]: 1.59 µM (active)

N=C1S/C(=C\c2ccc(-c3ccccc3C(=O)O)o2)C(=O)N1c1ccc2c(c1)OCO2
IC50 [4]: 153 µM (active)

N#Cc1c(O)nc(SCC(=O)N2c3ccccc3Sc3ccccc32)nc1-c1ccccc1
IC50 [5]: 10.9 µM (active)
IC50 (Large T antigen): 52.7 µM (active)
EC50 (Streptokinase A): > 150 µM (not active)
IC50 (SUMO-activating enzyme): 5.15 µM (active)
